≈ marks a conversion by molar mass, not a printed value. Calls of active or inactive are those of the source. The rule behind the calls is not given here.
Columns and labels:
[1] = Chemical stability of the compound in antioxidant reaction; type: physicochemical
[2] = test system: Escherichia coli; experiment: Antibacterial activity against Escherichia coli MTCC 739 at 80 ug/ml by modified microtiter broth dilution method; type: functional, organism-based
[3] = test system: Staphylococcus aureus; experiment: Antibacterial activity against Staphylococcus aureus MTCC 2940 at 80 ug/ml by modified microtiter broth dilution method; type: functional, organism-based
[4] = test system: Radical scavenging activity; experiment: Antioxidant activity assessed as DPPH free radical scavenging activity after 48 hrs; type: functional
[5] = test system: Staphylococcus aureus; experiment: Antibacterial activity against Staphylococcus aureus MTCC 96 at 80 ug/ml by modified microtiter broth dilution method; type: functional, organism-based
[6] = Antioxidant activity of the compound assessed as inhibition of lipid peroxidation after 48 hrs; type: functional
[7] = test system: NCI60; experiment: Cytotoxicity against human NCI60 cells; type: functional, cell-based
[8] = test system: Micrococcus luteus; experiment: Antibacterial activity against Micrococcus luteus MTCC 2470 at 80 ug/ml by modified microtiter broth dilution method; type: functional, organism-based
[9] = test system: Pseudomonas aeruginosa; experiment: Antibacterial activity against Pseudomonas aeruginosa MTCC 2453 at 80 ug/ml by modified microtiter broth dilution method; type: functional, organism-based
[10] = Antioxidant activity assessed as superoxide radical scavenging activity after 48 hrs; type: functional
[11] = test system: Raoultella planticola; experiment: Antibacterial activity against Klebsiella planticola MTCC 530 at 80 ug/ml by modified microtiter broth dilution method; type: functional, organism-based
[12] = test system: Bacillus subtilis; experiment: Antibacterial activity against Bacillus subtilis MTCC 121 by modified microtiter broth dilution method; type: functional
[13] = test system: Erythrocyte; experiment: Antioxidant activity in erythrocytes assessed as inhibition of hemolysis after 48 hrs; type: functional, cell-based
[14] = test system: Bacillus subtilis; experiment: Antibacterial activity against Bacillus subtilis MTCC 121 at 80 ug/ml by modified microtiter broth dilution method; type: functional, organism-based
[15] = Antioxidant activity assessed as superoxide radical scavenging activity; type: functional
[16] = Antioxidant activity of the compound assessed as inhibition of lipid peroxidation; type: functional
[17] = test system: Micrococcus luteus; experiment: Antibacterial activity against Micrococcus luteus MTCC 2470 by modified microtiter broth dilution method; type: functional
[18] = test system: Escherichia coli; experiment: Antibacterial activity against Escherichia coli MTCC 739 by modified microtiter broth dilution method; type: functional
[19] = test system: Staphylococcus aureus; experiment: Antibacterial activity against Staphylococcus aureus MTCC 96 by modified microtiter broth dilution method; type: functional
[20] = test system: Radical scavenging activity; experiment: Antioxidant activity assessed as DPPH free radical scavenging activity; type: functional
[21] = test system: Staphylococcus aureus; experiment: Antibacterial activity against Staphylococcus aureus MTCC 2940 by modified microtiter broth dilution method; type: functional
[22] = Antioxidant activity in erythrocytes assessed as inhibition of hemolysis; type: functional, cell-based; conditions: erythrocyte
[23] = test system: Pseudomonas aeruginosa; experiment: Antibacterial activity against Pseudomonas aeruginosa MTCC 2453 by modified microtiter broth dilution method; type: functional
[24] = test system: Raoultella planticola; experiment: Antibacterial activity against Klebsiella planticola MTCC 530 by modified microtiter broth dilution method; type: functional

Compound | Stability [1] | Activity [2] | Activity [3] | Activity [4] | Activity [5] | Activity [6] | Activity [8] | Activity [9] | Activity [10] | Activity [11] | MIC [12] [µg/mL] | Activity [13] | Activity [14] | EC50 [15] [µg/mL] | EC50 [16] | MIC [17] [µg/mL] | MIC [18] [µg/mL] | MIC [21] [µg/mL] | MIC [23] [µg/mL] | MIC [24] [µg/mL] | further results
COC(=O)Cc1cc(O)cc2oc(-c3ccc(N)cc3)cc(=O)c12 | Unstable | inactive | inactive | inactive | inactive | inactive | inactive | inactive | inactive | inactive | 9 (≈ 27.7 µM) | inactive | – | – | – | – | – | – | – | – | Activity [7]: inactive
O=c1cc(-c2ccc(O)c(O)c2)oc2cc(O)cc(O)c12 [LUTEOLIN] | – | – | – | – | – | – | – | inactive | – | inactive | – | – | inactive | 31.01 (≈ 108 µM) | 134.1 µg/mL (≈ 468 µM) | 18 (≈ 62.9 µM) | 4 (≈ 14 µM) | 18 (≈ 62.9 µM) | – | – | MIC [19]: 9 µg/mL (≈ 31.4 µM); EC50 [20]: 44.18 µg/mL (≈ 154 µM); EC50 [22]: 122 µg/mL (≈ 426 µM)
COC(=O)Cc1cc(O)cc2oc(-c3cccc(OC)c3Cl)cc(=O)c12 | Unstable | inactive | inactive | inactive | – | inactive | inactive | inactive | inactive | inactive | – | inactive | inactive | – | – | – | – | – | – | – | MIC [19]: 9 µg/mL (≈ 24 µM)
O=C1O[C@H]([C@@H](O)CO)C(O)=C1O [ASCORBIC ACID] | – | – | – | – | – | – | – | – | – | – | – | – | – | 21.01 (≈ 119 µM) | 139.97 µg/mL (≈ 795 µM) | – | – | – | – | – | EC50 [20]: 40.28 µg/mL (≈ 229 µM); EC50 [22]: 119.87 µg/mL (≈ 681 µM)
COC(=O)Cc1cc(O)cc2oc(-c3ccc(OC)cc3)cc(=O)c12 | Unstable | – | inactive | inactive | inactive | inactive | inactive | – | inactive | inactive | 9 (≈ 26.4 µM) | inactive | – | – | – | – | 18 (≈ 52.9 µM) | – | 37 (≈ 109 µM) | – | Activity [7]: inactive
COC(=O)Cc1cc(O)cc2oc(-c3ccc(OC)c(O)c3)cc(=O)c12 | Unstable | – | – | inactive | inactive | inactive | inactive | – | inactive | inactive | – | inactive | inactive | – | – | – | 18 (≈ 50.5 µM) | 37 (≈ 104 µM) | 9 (≈ 25.3 µM) | – | Activity [7]: inactive
COC(=O)Cc1cc(O)cc2occc(=O)c12 | Unstable | inactive | inactive | inactive | inactive | inactive | inactive | inactive | inactive | inactive | – | inactive | – | – | – | – | – | – | – | – | –
COC(=O)Cc1cc(O)cc2oc(-c3cc(OC)cc(OC)c3)cc(=O)c12 | Unstable | – | – | inactive | – | inactive | – | – | inactive | – | 18 (≈ 48.6 µM) | inactive | – | – | – | 9 (≈ 24.3 µM) | 4 (≈ 10.8 µM) | 18 (≈ 48.6 µM) | 9 (≈ 24.3 µM) | 18 (≈ 48.6 µM) | Activity [7]: inactive; MIC [19]: 9 µg/mL (≈ 24.3 µM)
CCOC(=O)Cc1cc(O)cc2oc(-c3ccc(O)cc3)cc(=O)c12 | – | – | inactive | – | inactive | – | – | inactive | – | – | 9 (≈ 26.4 µM) | – | – | 77.71 (≈ 228 µM) | 171.54 µg/mL (≈ 504 µM) | 9 (≈ 26.4 µM) | 9 (≈ 26.4 µM) | – | – | 9 (≈ 26.4 µM) | EC50 [20]: 71.11 µg/mL (≈ 209 µM); EC50 [22]: 151.1 µg/mL (≈ 444 µM)
COC(=O)Cc1cc(O)cc2oc(-c3cc(O)ccc3O)cc(=O)c12 | Unstable | – | inactive | inactive | inactive | inactive | – | – | inactive | inactive | – | inactive | inactive | 106.22 (≈ 310 µM) | 221.12 µg/mL (≈ 646 µM) | 37 (≈ 108 µM) | 18 (≈ 52.6 µM) | – | 18 (≈ 52.6 µM) | – | EC50 [20]: 119.11 µg/mL (≈ 348 µM); EC50 [22]: 209.56 µg/mL (≈ 612 µM)
COC(=O)Cc1cc(O)cc2oc(-c3ccc(C)cc3)cc(=O)c12 | Unstable | – | – | inactive | – | inactive | – | – | inactive | – | 4 (≈ 12.3 µM) | inactive | – | – | – | 18 (≈ 55.5 µM) | 4 (≈ 12.3 µM) | 18 (≈ 55.5 µM) | 9 (≈ 27.7 µM) | 18 (≈ 55.5 µM) | Activity [7]: inactive; MIC [19]: 9 µg/mL (≈ 27.7 µM)
COC(=O)Cc1cc(O)cc2oc(-c3ccc(O)c(OC)c3)cc(=O)c12 | Unstable | – | – | inactive | – | inactive | – | – | inactive | – | 4 (≈ 11.2 µM) | inactive | – | – | – | 18 (≈ 50.5 µM) | 4 (≈ 11.2 µM) | 18 (≈ 50.5 µM) | 9 (≈ 25.3 µM) | 9 (≈ 25.3 µM) | Activity [7]: inactive; MIC [19]: 9 µg/mL (≈ 25.3 µM)
CCCCCc1cc(=O)c2c(CC(=O)OC)cc(O)cc2o1 [PESTALOTIOPSONE F] | Unstable | inactive | – | inactive | inactive | inactive | inactive | inactive | inactive | – | – | inactive | inactive | – | – | – | – | 9 (≈ 29.6 µM) | – | 9 (≈ 29.6 µM) | –
COC(=O)Cc1cc(O)cc2oc(-c3ccc(O)cc3O)cc(=O)c12 | – | inactive | inactive | – | inactive | – | inactive | – | – | inactive | – | – | inactive | 60.9 (≈ 178 µM) | Not Active | – | – | – | 9 (≈ 26.3 µM) | – | EC50 [20]: 60 µg/mL (≈ 175 µM); EC50 [22]: Not Active
COC(=O)Cc1cc(O)cc2oc(-c3ccc([N+](=O)[O-])cc3)cc(=O)c12 | Unstable | – | – | inactive | inactive | inactive | – | – | inactive | – | 18 (≈ 50.7 µM) | inactive | inactive | – | – | 18 (≈ 50.7 µM) | 37 (≈ 104 µM) | 18 (≈ 50.7 µM) | 9 (≈ 25.3 µM) | 9 (≈ 25.3 µM) | –
COC(=O)Cc1cc(O)cc2oc(-c3ccccc3)cc(=O)c12 | Unstable | inactive | – | inactive | inactive | inactive | inactive | inactive | inactive | inactive | – | inactive | inactive | – | – | – | – | 9 (≈ 29 µM) | – | – | –
COC(=O)Cc1cc(O)cc2oc(-c3cc(O)c(O)c(O)c3)cc(=O)c12 | – | inactive | – | – | inactive | – | inactive | inactive | – | – | – | – | inactive | 50.09 (≈ 140 µM) | 156.21 µg/mL (≈ 436 µM) | – | – | 9 (≈ 25.1 µM) | – | 9 (≈ 25.1 µM) | EC50 [20]: 55.08 µg/mL (≈ 154 µM); EC50 [22]: 139.76 µg/mL (≈ 390 µM)
COC(=O)Cc1cc(O)cc2oc(-c3ccc(O)c(O)c3)cc(=O)c12 | – | inactive | – | – | inactive | – | inactive | – | – | inactive | – | – | inactive | 44.08 (≈ 129 µM) | 142 µg/mL (≈ 415 µM) | – | – | 9 (≈ 26.3 µM) | 9 (≈ 26.3 µM) | – | EC50 [20]: 49.99 µg/mL (≈ 146 µM); EC50 [22]: 127.98 µg/mL (≈ 374 µM)
COC(=O)Cc1cc(O)cc2oc(-c3ccc(Cl)cc3)cc(=O)c12 | Unstable | inactive | – | inactive | – | inactive | inactive | – | inactive | inactive | – | inactive | inactive | – | – | – | – | 75 (≈ 218 µM) | 37 (≈ 107 µM) | – | MIC [19]: 37 µg/mL (≈ 107 µM)
COC(=O)Cc1cc(O)cc2oc(-c3cc(OC)c(OC)c(OC)c3)cc(=O)c12 | Unstable | – | – | inactive | – | inactive | – | – | inactive | – | 9 (≈ 22.5 µM) | inactive | – | – | – | 4 (≈ 9.99 µM) | 18 (≈ 45 µM) | 18 (≈ 45 µM) | 18 (≈ 45 µM) | 9 (≈ 22.5 µM) | MIC [19]: 18 µg/mL (≈ 45 µM)

Reference: ChEMBL document CHEMBL2046382, “Synthesis, biological evaluation of 5-carbomethoxymethyl-7-hydroxy-2-pentylchromone, 5-carboethoxymethyl-4',7-dihydroxyflavone and their analogues” (Bioorg Med Chem Lett, 2012)
